Measured values: patent US4004008A, “O-Tertiary amino-alkyl-N-benzoyl tyrosil amides” (priority 1974, dated 1977)

How the values were obtained:
[1] = Acute toxicity (DL50) i.v. in rat; assay type: in vivo; conditions: in vivo, iv, dose causing death in 50% of the animals
Experimental: In this table (n. 1) there are recorded the compounds described in the examples with their relative serial numbers, the acute toxicity, the antispastic activity observed in two experimental tests, one "in vivo" and one "in vitro". There are moreover recorded two therapeutic indices which take account of the toxicity of these compounds in relation to their in vivo and in vitro activity. More precisely:
A. DL50 which, as is known, is the quantity of the substance expressed in mg/kg of animal weight, capable of causing death in 50% of the animals treated.

[2] = system: intestinal transit of the charcoal; assay: Vegetable carbon (charcoal) intestinal transit test in vivo; set-up: species or system rat; conditions: i.v., rat, charcoal test, 2 hours; for ED50: Rattus norvegicus, iv, 2 h, read-out: Antisp. activity in transit test: ED50
Experimental: B. The vegetable carbon method in vivo (charcoal method) which consists of administering by oral means to rats, which have fasted for 24 hours, 0.3ml/per rate of a mixture consisting of: 10g of charcoal and 5 g of gum arabic suspended in a volume of 100 cc of H2 O as well as at the same time the substance being studied, accordingly as desired, generally i.v., s.c., oral. After two hours the animals are killed and those are taken to be negative in which the charcoal has reached the first portion of the colon and the others positive, in the sense that the substance administered has slowed down the intestinal transit of the charcoal.
In effect the animals treated with a physiological solution (checks) are all negative after two hours.
D. I.T.1 is the therapeutic index under the profile of the antispastic activity in vivo, and it is obtained by recording the DL50 (column 2) with the ED50 of the charcoal test (column 3).

[3] = system: ileum of a cavy (BaCl2 spasm); assay: Antispastic activity in vitro, Magnus method, cavy ileum stimulated with BaCl2; assay type: cell-based; conditions: ratio to papaverine = 1; Table 1; 37°
Experimental: C. The method in vitro is that of Magnus, with the ileum of the cavy, and is in common use for all evaluations. It consists of extracting the ileum from the cavy and placing it in a receptacle which contains nutritive liquid, suitably oxygenated, and registering the movements of the organ which remains alive for several hours if maintained at a temperature of 37°. According to the traditional method followed by us, BaCl2 is put into the bath as a spasmisant: the reaction is a violent contraction of the organ. This contraction can be prevented by adding beforehand pharmaceuticals which inhibit spasms, and in this case our compounds.
The values recorded are expressed as relation between papaverine and the ED50 of our compounds. (As is known, the ED50 is the dose which results in a 50% reduction in spastic contraction).
E. I.T.2 is the therapeutic index under the profile of the antispastic activity in vitro and is given by the product between the in vitro antispastic activity index (column 4) and the corresponding DL50 (column 2).

Compound | LD50 [1] | ED50 [2] | Antisp. activity in vitro on the ileum of a cavy by Stim. BaCl2: ED50 pap./ED50 CR [3] | Antisp. activity in transit test: ED50 [2]
CCCN(CCC)C(=O)C(Cc1ccc(OCCN(C)C)cc1)NC(=O)c1ccccc1 (racemic) [CR 592, O-(2dimethylamino-ethyl)-N-benzol-DL-Tyrosil-di-n-propilamide] | 58.1 mg/kg | 47.5 mg/kg | 0.25 | 
CCNC(=O)C(Cc1ccc(OCCN(C)C)cc1)NC(=O)c1ccccc1 (racemic) [CR 608, O-(2-dimethylamino-ethyl)-N-benzoyl-DL-tyrosil-ethylamide] | 162 mg/kg | 104 mg/kg |  | 
CCCN(CCC)C(=O)C(Cc1ccc(OCCCN2CCN(CCO)CC2)cc1)NC(=O)c1ccccc1 (racemic) [CR 609, O-[3-(N"-hydroxyethyl-piperazine)-N'-propyl]-N-benzoyl-DL-tyrosil-di-n-propylamide] | 139 mg/kg | 50.5 mg/kg | 0.68 | 
CN(C)CCOc1ccc(CC(NC(=O)c2ccccc2)C(=O)N2CCOCC2)cc1 (racemic) [CR 611, O-(2-dimetylamino-ethyl)-N-benzoyl-DL-tyrosil-morpholilamide] | 108 mg/kg | 59.8 mg/kg |  | 
CCN(CC)CCOc1ccc(CC(NC(=O)c2ccccc2)C(=O)N2CCCC2)cc1 (racemic) [CR 614, O-(2-diethylamino-ethyl)-N-benzoyl-DL-tyrosil-pyrrolidilamide] | 58.7 mg/kg | 53.2 mg/kg |  | 
CN(C)CCOc1ccc(CC(NC(=O)c2ccccc2)C(=O)NCc2ccccc2)cc1 (racemic) [CR 616, O-(2-dimethylamino-ethyl)-N-benzoyl-DL-tyrosil-benzylamide] | 73.6 mg/kg |  | 0.82 | inactive
CCCN(CCC)C(=O)C(Cc1ccc(OCCCN2CCN(Cc3ccccc3)CC2)cc1)NC(=O)c1ccccc1 (racemic) [CR 619, O-[3-(N"-benzylpiperazine)-N'-propyl]-N-benzoyl-DL-tyrosil-di-n-propylamide] | 110 mg/kg | 67.8 mg/kg |  | 
CCCN(CCC)C(=O)C(Cc1ccc(OCCN(C)C)cc1)NC(=O)c1ccc([N+](=O)[O-])cc1 (racemic) [CR 620, O-(2-dimethylamino-ethyl)-N-(p-nitro-benzoyl)DL-tyrosil-di-n-propylamide] | 117 mg/kg |  | 0.36 | inactive
CCCN(CCC)C(=O)C(Cc1ccc(OCCN(C(C)C)C(C)C)cc1)NC(=O)c1ccccc1 (racemic) [CR 624, O-(2-di-isopropylamino-ethyl)-N-benzoyl-DL-tyrosil-di-n-propylamide] | 24.4 mg/kg |  | 1.12 | inactive
CCCN(CCC)C(=O)C(Cc1ccc(OCCN2CCCC2)cc1)NC(=O)c1ccccc1 (racemic) [CR 625, O-(2-pyrrolidil-N'-ethyl)-N-benzoyl-DL-tyrosil-di-n-propylamide] | 32.6 mg/kg | 21.1 mg/kg | 0.52 | 
CCCN(CCC)C(=O)C(Cc1ccc(OCCN2CCCCC2)cc1)NC(=O)c1ccccc1 (racemic) [CR 630, O-(2-piperidil -N'-ethyl)-N-benzoyl-DL-tyrosil-di-n-propylamide] | 36.1 mg/kg | 40.1 mg/kg |  | 
CCCN(CCC)C(=O)C(Cc1ccc(OCCN(CC)CC)cc1)NC(=O)c1ccc(Br)cc1 (racemic) [CR 631, O-(2-diethylamino-ethyl)-N-(p-bromobenzoyl)-DL-tyrosil-din-propylamide] | 60.2 mg/kg | 40.4 mg/kg | 1.22 | 
CCCN(CCC)C(=O)C(Cc1ccc(OCCN(CC)CC)cc1)NC(=O)c1ccc(C)c(C)c1 (racemic) [CR 632, O-(2-diethylamino-ethyl)-N-(3,4-di-methyl-benzoyl)-DL-tyrosil-di-n-propylamide] | 38.1 mg/kg | 26 mg/kg | 0.40 | 
CCCN(CCC)C(=O)C(Cc1ccc(OCCN(CC)CC)cc1)NC(=O)c1ccc(C(F)(F)F)cc1 (racemic) [CR 635, O-(2-diethylamino-ethyl)-N-[p-(trifluoro-methyl)-benzoyl]-DL-tyrosil-di-n-p ropylamide] | 38.7 mg/kg | 25.6 mg/kg | 0.95 | 
CCCN(CCC)C(=O)C(Cc1ccc(OCCN(CC)CC)cc1)NC(=O)c1ccc(OC)cc1 (racemic) [CR 644, O-(2-diethylamino-ethyl)-N-(p-metoxy-benzoyl)-DL-tyrosil-di-n-propylamide] | 56.4 mg/kg | 20.2 mg/kg | 0.45 | 
CCCCNC(=O)C(Cc1ccc(OCCN2CCCC2)cc1)NC(=O)c1ccccc1 (racemic) [CR 648, O-(2-pyrrolidil-N'-ethyl)-N-benzoyl-DL-tyrosil-n-butylamide] | 35.6 mg/kg | 10.7 mg/kg | 0.16 | 
CCCN(CCC)C(=O)C(Cc1ccc(OC(C)C(C)CN(CC)CC)cc1)NC(=O)c1ccccc1 (racemic) [CR 700, O-(3-diethylamino-1,2-dimethyl-propyl)-N-benzoyl-DL-tyrosil-di-n-propylamide] | 19.3 mg/kg | 20.4 mg/kg |  | 
CCCCNC(=O)C(Cc1ccc(OCCCN2CCN(C)CC2)cc1)NC(=O)c1ccccc1 (racemic) [CR 702, O-[3-(N"-methyl-piperazine)-N'-propyl]-N-benzoyl-DL-tyrosil-n-butylamide] | 81.4 mg/kg | 62.5 mg/kg | 0.11 | 
CCCCNC(=O)C(Cc1ccc(OCCCN2CCN(C)CC2)cc1)NC(=O)c1ccc(Cl)cc1 (racemic) [CR 705, O-[3-(N"-methyl-piperazine)-N'-propyl]-N-(p-chloro-benzoyl)-DL-tyrosil-n-butylamide] | 80 mg/kg | 31 mg/kg | 1.57 | 
CCNC(=O)C(Cc1ccc(OCCN(C(C)C)C(C)C)cc1)NC(=O)c1ccccc1 (racemic) [CR 711, O-(2-diisopropylamino-ethyl)-N-benzoyl-DL-tyrosil-ethylamide] | 82 mg/kg |  | 0.42 | inactive
CCNC(=O)C(Cc1ccc(OCCCN2CCN(C)CC2)cc1)NC(=O)c1ccc(Cl)cc1 (racemic) [CR 714, O-[3-(N"-methyl-piperazine)-N'-propyl]-N-(p-chloro-benzoyl)-DL-tyrosil-ethylamide] | 111 mg/kg |  | 0.42 | inactive
CCCN(CCC)C(=O)C(Cc1ccc(OCCN(C(C)C)C(C)C)cc1)NC(=O)c1ccc(Cl)cc1 (racemic) [CR 727, O-(2'-di-isopropylamino-ethyl)-N-(p-chloro-benzoyl)-DL-tyrosil-di-n-propylamide] | 26.3 mg/kg | 24.9 mg/kg | 1.52 | 
CCCCNC(=O)C(Cc1ccc(OCCN(CC)CC)cc1)NC(=O)c1ccc(Cl)cc1 (racemic) [CR 729, O-(2-diethylamino-ethyl)-N-(p-chloro-benzoyl)-DL-tyrosil-n-butylamide] | 38.6 mg/kg | 23 mg/kg | 2.45 | 
CCCCNC(=O)C(Cc1ccc(OCCN2CCN(C)CC2)cc1)NC(=O)c1ccc(Cl)cc1 (racemic) [CR 730, O-[2-(N"-methyl-piperazine)-N'-ethyl]-N-(p-chloro-benzoyl)-DL-tyrosil-n-butylamide] | 50 mg/kg | 30.2 mg/kg | 0.99 | 
CCCN(CCC)C(=O)C(Cc1ccc(OCCN2CCN(C)CC2)cc1)NC(=O)c1ccc(Cl)cc1 (racemic) [CR 733, O-[2'-(N"-methyl-piperazine)-N'-ethyl]-N-(p-chloro-benzoyl)-DL-tyrosil-di-n-propylamide] | 43.5 mg/kg | 16.7 mg/kg | 1.31 | 
CCCN(CCC)C(=O)C(Cc1ccc(OCCCCN(CC)CC)cc1)NC(=O)c1ccccc1 (racemic) [CR 829, O-(4-diethylamino-butyl)-N-benzoyl-DL-tyrosil-di-n-propylamide] | 20.1 mg/kg | 15.2 mg/kg |  | 
